Laboratory results from paper PMC11680018, “Study of Cytotoxicity of Spiro-Fused [3-Azabicyclo[3.1.0]hexane]oxindoles and Cyclopropa[a]pyrrolizidine-oxindoles Against Tumor Cell Lines” (Pharmaceuticals, 2024).
Read-outs that look alike come from different tables or passages of the source.

Columns and labels:
[1] = system: acute T cell leukemia (Jurkat) cell line; test: MTS cell proliferation assay, Jurkat; type: cell-based, human; conditions: for IC50: Homo sapiens, Jurkat, MTS; for SI (selectivity index) Jurkat: ratio of cytotoxicity PBMC / Jurkat, calculated at 72 h
Experimental: (§1) Cancer cell lines are valuable in vitro model systems that are widely used in cancer research and drug discovery. Their use is mainly linked to their possibility to provide for experimental purposes an unlimited source of biological material. Here, the 24 and 72 h in vitro MTS assay was used to determine the antiproliferative activity of synthesized spiro-fused cyclopropa[a]pyrrolizidine-2,3′-oxindoles and [3-azabicyclo[3.1.0]hexane]-oxindoles against human erythroleukemia (K562), acute T cell leukemia (Jurkat), cervical carcinoma (HeLa), melanoma (Sk-mel-2), breast cancer adenocarcinoma (MCF-7) as well as mouse colon carcinoma (CT26) cell lines. […] The full results of these investigations are presented in the Supporting Information Figures S1–S6. […] An evaluation of the cytotoxicity of the selected compounds towards normal cells (peripheral blood mononuclear cells) was performed additionally to understand their respective relative selectivities. The selectivity index was obtained using the ratio of measured cytotoxicity between the PBMC cells and each of the cancer cell lines, and the results are presented in Table 3.
(§2) The human erythroleukemia (K-562), cervical carcinoma (HeLa) as well as mouse colon carcinoma (CT26) cell lines were obtained from the Bank of Cell Cultures of the Institute of Cytology of the Russian Academy of Sciences; the human melanoma (Sk-mel-2) cell line was obtained from the Bank of Cell Cultures of the Institute of Cytology and Genetics, Siberian Branch of the Russian Academy of Sciences. The acute T cell leukemia (Jurkat) cell line was obtained from the Bank of Cell Cultures of the Institute of Immunology of the Russian Academy of Medical Sciences. The peripheral blood mononuclear cells (PBMC) were isolated from the blood of healthy donors. K-562, Jurkat, MCF-7, PBMC and CT26 cells were grown on RPMI medium (Hyclone, GE Healthcare Life Sciences, Logan, UT, USA) supplemented with 10% (v/v) fetal bovine serum (Hyclone, GE Healthcare Life Sciences, Logan, UT, USA) and gentamicin (Sigma-Aldrich, St. Louis, MO, USA) at 37 °C in a humidified atmosphere with 5% CO2. HeLa and Sk-mel-2 cells were cultured with the same supplements and conditions in DMEM medium (Hyclone, GE Healthcare Life Sciences, Logan, UT, USA).
(§3) To evaluate the in vitro toxicity of the compounds synthesized, cells were seeded into 96-well plates at a density of 5 × 10^3 cells per well. On the next day, the tested compounds were added to the wells at concentrations ranging from 1 to 30 μg/mL, followed by incubation for 1 and 3 days. Cell proliferation was determined by adding 20 μL of MTS reagent (BioVision, Milpitas, CA, USA) stock solution per well. The plates were incubated for 2 h at 37 °C in a humidified, 5% CO2 atmosphere. The plates were then read at 495 nm using a plate spectrophotometer (Multiskan GO, Thermo Fisher Scientific, Waltham, MA, USA). All samples were measured in triplicate.

[2] = system: melanoma (Sk-mel-2) cell line; test: MTS cell proliferation assay, Sk-mel-2; type: cell-based, human; conditions: for IC50: Homo sapiens, MTS; for SI (selectivity index) Sk-mel-2: ratio of cytotoxicity PBMC / Sk-mel-2, calculated at 72 h
Experimental: as §1, §2, §3

[3] = system: cervical carcinoma (HeLa) cell line; test: MTS cell proliferation assay, HeLa; type: cell-based, human; conditions: for IC50: Homo sapiens, HeLa, MTS; for SI (selectivity index) HeLa: ratio of cytotoxicity PBMC / HeLa, calculated at 72 h
Experimental: as §1, §2, §3

[4] = system: human erythroleukemia (K562) cell line; test: MTS cell proliferation assay, K562; type: cell-based; conditions: for IC50: Homo sapiens, MTS; for SI (selectivity index) K562: ratio of cytotoxicity PBMC / K562, calculated at 72 h
Experimental: as §1, §2, §3

[5] = system: breast cancer adenocarcinoma (MCF-7) cell line; test: MTS cell proliferation assay, MCF-7; type: cell-based, human; conditions: for IC50: Homo sapiens, MTS; for SI (selectivity index) MCF-7: ratio of cytotoxicity PBMC / MCF-7, calculated at 72 h
Experimental: as §1, §2, §3

[6] = system: HeLa cells actin cytoskeleton; test: Actin cytoskeleton staining, confocal microscopy, HeLa; type: cell-based, human; conditions: 10 μg/mL, 24 h
Experimental: It was found using confocal microscopy that incubation with spiro-fused [3-azabicyclo[3.1.0]hexane]oxindoles 4, 8, 17, 18, 22, 24 and cyclopropa[a]pyrrolizidine-2,3′-oxindole 2 led to significant changes in the HeLa cells’ actin cytoskeleton structure leading to the disappearance of stress fibers (granular actin was distributed diffusely in the cytoplasm in up to 38% of treated cells) and changes in the number of filopodia-like deformations (reduced from 93% in control cells to 64% after treatment). The impact on the Sk-mel-2 cells’ actin cytoskeleton structure was even greater: granular actin was distributed diffusely in the cytoplasm in up to 90% of treated cells while the number of filopodia-like deformations was reduced by up to 23%. Such changes in the cytoskeleton may indicate a change in the motor activity of cells, which may indicate a decrease in the ability of tumor cells to metastasize.
HeLa cells were seeded at a density of 2 × 10^5 cells per dish onto a petri dish with cover slips and incubated for 24 h. After that, cells were treated with chosen compounds (10 μg/mL) for 24 h. The medium was removed and cells were fixed with 4% paraformaldehyde (Sigma-Aldrich, St. Louis, MO, USA), washed three times with PBS, and permeabilized with 0.3% Triton-X100 (Sigma-Aldrich, St. Louis, MO, USA). The cells were rinsed three times with PBS. Actin filaments (microfilaments) were stained with rhodamine–phalloidin (Invitrogen, Carlsbad, CA, USA) at 37 °C for 15 min. The samples were rinsed three times with PBS, followed by embedding in Fluoroshield medium (Sigma-Aldrich, St. Louis, MO, USA). Cells were imaged using an Axio Observer Z1 confocal microscope (Carl Zeiss MicroImaging GmbH, Jena, Germany). In each experiment, at least 30 cells were imaged. Images were analyzed by a pathologist blinded to the treatment mode used for each group using ImageJ software, 1.52v.

[7] = system: mouse colon carcinoma (CT26) cell line; test: MTS cell proliferation assay, CT26; type: cell-based; conditions: for IC50: Mus musculus, MTS; for SI (selectivity index) CT26: ratio of cytotoxicity PBMC / CT26, calculated at 72 h
Experimental: as §1, §2, §3

[8] = system: peripheral blood mononuclear cells (PBMC); test: MTS cytotoxicity towards normal cells, PBMC; type: cell-based; conditions: Homo sapiens
Experimental: as §1, §2, §3

K562 cells = test: Cell cycle analysis by flow cytometry; type: cell-based, human; conditions: 24 h; for K562 cells in SubG1 phase: control 4.5 ± 0.9; for K562 cells in G2/M phase: control 23.1 ± 1.7; for K562 cells in S phase: control 31.9 ± 1.0; for K562 cells in G0/G1 phase: control 40.5 ± 1.3
Excerpt: Since growth inhibition may be a result of cell cycle arrest at a particular point, the specific antiproliferative activity of several cycloadducts was further evaluated by flow cytometry to study their impact on the progression of the cell cycle in K562 cells. The assay utilizes propidium iodide-based staining of DNA content to distinguish and measure the accumulation of cells in each cell cycle phase (SubG, G0/G1, S and G2/M).
The distribution of K562 cells in the G0/G1-, S- and G2/M-phases of the cell cycle was obtained by quantification of DNA content using flow cytometry in DAPI-stained cells. Briefly, cells were seeded at a density of 5 × 10^4 cells per well in 24-well plates. […] After incubation with drugs, the cells were harvested by pipetting. This was followed by treatment with 0.2 mg/mL saponin (Fluka, Waltham, MA, USA) and 0.05 mg/mL DAPI (Thermo scientific, Rockford, IL, USA). After washing, the samples were analyzed using a standard flow cytometer (BD FACSCanto II, Becton Dickinson, San Jose, CA, USA). A total of 10,000 events were acquired for the samples. Data processing was performed using the BD FACSDiva 9.0 software.

[9] = read-out: IC50 Jurkat 24 h, 24 h
[10] = 72 h, read-out: IC50 Jurkat 72 h
[11] = read-out: IC50 Sk-mel-2 24 h, Sk-mel-2, 24 h
[12] = Sk-mel-2, 72 h, read-out: IC50 Sk-mel-2 72 h
[13] = read-out: IC50 K562 24 h, K562, 24 h
[14] = K562, 72 h, read-out: IC50 K562 72 h
[15] = MCF7, read-out: IC50 MCF-7 24 h, MCF-7, 24 h
[16] = MCF7, MCF-7, 72 h, read-out: IC50 MCF-7 72 h
[17] = read-out: IC50 CT26 24 h, CT26, 24 h
[18] = CT26, 72 h, read-out: IC50 CT26 72 h

IC50 [1, 9] [µM]	IC50 [1, 10] [µM]	IC50 [2, 11] [µM]	IC50 [2, 12] [µM]	IC50 ([3]; read-out: IC50 HeLa 24 h, 24 h) [µM]	IC50 ([3]; 72 h, read-out: IC50 HeLa 72 h) [µM]	IC50 [4, 13] [µM]	IC50 [4, 14] [µM]	IC50 [5, 15] [µM]	IC50 [5, 16] [µM]	IC50 [7, 17] [µM]	IC50 [7, 18] [µM]	Compound	SI (selectivity index) Jurkat [1]	SI (selectivity index) Sk-mel-2 [2]	SI (selectivity index) HeLa [3]	SI (selectivity index) K562 [4]	SI (selectivity index) MCF-7 [5]	SI (selectivity index) CT26 [7]	IC50 ([8]; 72 h, read-out: IC50 PBMC 72 h) [µM]	IC50 ([8]; read-out: IC50 PBMC 24 h, 24 h) [µM]	further results
21 ± 2	4 ± 1	> 40	23 ± 2	> 40	23 ± 2	> 40	12 ± 1	> 40	> 40	> 40	39 ± 3	CC(C)CC1NC2(C(=O)Nc3ccccc32)C2(c3ccccc3)C(c3ccccc3)C12c1ccccc1 (stereo not shown) [Compound 22]	16	3	3	5	1	2	64 ± 6	132 ± 16	HeLa cells with filopodia-like deformations ([6]; control cells 93%, lowest value over the compounds): ≥ 64%; HeLa cells with granular actin distributed diffusely in the cytoplasm (stress fibers disappeared) ([6]; maximum over the compounds): up to 38%
25 ± 2	12 ± 1	> 40	> 40	> 40	> 40	> 40	21 ± 2	> 40	> 40	> 40	> 40	CC[C@H](C)C1NC2(C(=O)Nc3ccccc32)C2(c3ccccc3)C(c3ccccc3)C12c1ccccc1 (stereo partly shown) [Compound 23]	13	3	3	8	3	3	165 ± 16	177 ± 20	–
–	–	–	–	4 ± 1	1 ± 0.1	16 ± 3	1 ± 0.4	–	–	19 ± 3	6 ± 1	COc1cccc2c1C(=O)c1c(O)c3c(c(O)c1C2=O)C[C@@](O)(C(=O)CO)C[C@@H]3O[C@H]1C[C@H](N)[C@H](O)[C@H](C)O1 [Doxorubicin, reference compound]	–	–	9	9	–	2	9 ± 1	11 ± 1	K562 cells in SubG1 phase (K562 cells; 1 μg/mL): 43.0 ± 1.0%; K562 cells in G2/M phase (K562 cells; 1 μg/mL): 2.2 ± 0.3%; K562 cells in S phase (K562 cells; 1 μg/mL): 8.8 ± 1.7%; K562 cells in G0/G1 phase (K562 cells; 1 μg/mL): 45.6 ± 0.8%; K562 cells in SubG1 phase (K562 cells; 5 μg/mL): 93.1 ± 0.7%; K562 cells in G2/M phase (K562 cells; 5 μg/mL): 0.2 ± 0.1%; K562 cells in S phase (K562 cells; 5 μg/mL): 0.8 ± 0.1%; K562 cells in G0/G1 phase (K562 cells; 5 μg/mL): 5.9 ± 0.6%
